# Measured values from patent US7309702B2, “Arylpiperazines having activity at the serotonin 1A receptor” (Avera Pharmaceuticals, Inc., priority 1997, dated 2007).
# Where a name gives a salt, the structure may show the parent alone.
row,Compound,melting point
1,"COc1ccccc1N1CCN(CCC(C(=O)C2CCCCCC2)c2ccccc2)CC1 (centres unmarked) (as salt: hydrochloride) [Example 6, 1-(2-methoxyphenyl)-4-[3-(cycloheptanecarbonyl)-3-(phenyl)propyl]piperazine dihydrochloride]",193 to 194 °C
2,"COc1ccccc1N1CCN(CCC(C(=O)C2CCCC2)c2ccccc2)CC1 (centres unmarked) (as salt: hydrochloride) [Example 7, 1-(2-methoxyphenyl)-4-[3-(cyclopentanecarbonyl)-3-(phenyl)propyl]piperazine dihydrochloride]",210 to 212 °C
3,"COc1ccccc1N1CCN(CCC(C(=O)c2ccccc2)c2ccccc2)CC1.O=C(O)C(=O)O (centres unmarked) [Example 1, 1-(2-methoxyphenyl)-4-[3-(benzoyl)-3-(phenyl)propyl]piperazine Oxalate]",161 to 163 °C
4,"COc1ccccc1N1CCN(CCC(C(=O)C2CCCCC2)c2ccccc2)CC1.O=C(O)C(=O)O (centres unmarked) [Example 2, 1-(2-methoxyphenyl)-4-[3-(cyclohexanecarbonyl)-3-(phenyl)propyl]piperazine oxalate]",149 to 151 °C
5,"O=C(C1CCCCC1)C(CCN1CCN(c2ccccn2)CC1)c1ccccc1.O=C(O)C(=O)O (centres unmarked) [Example 3, 1-(2-pyridyl)-4-[3-(cyclohexanecarbonyl)-3-(phenyl)propyl]piperazine oxalate]",185 to 187 °C
6,"COc1ccccc1N1CCN(CCC(C)(C(=O)c2ccccc2)c2ccccc2)CC1.O=C(O)C(=O)O (centres unmarked) [Example 5, 1-(2-methoxyphenyl)-4-[3-(benzoyl)-3-(phenyl)butyl]piperazine oxalate]",192 to 193 °C
7,"COc1ccccc1N1CCN(CCC(c2ccccc2)C(O)C2CCCCC2)CC1.O=C(O)C(=O)O (centres unmarked) [Example 8, 1-(2-methoxyphenyl)-4-[4-(cyclohexyl)-4-(hydroxy)-3-(phenyl)butyl]piperazine oxalate]",100 to 102 °C
8,"COc1ccccc1N1CCN(CCC(C)(C(=O)C2CCCCC2)c2ccccc2)CC1 (centres unmarked) [Example 9, 1-(2-methoxyphenyl)-4-[3-(cyclohexanecarbonyl)-3-(phenyl)butyl]piperazine]",192.81 °C
